Each structure is given as a SMILES string.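 Test compounds were applied to cells in 96-well plates for 48 hours at 5 doses. At the GI50, growth is halved.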 Calls of active or inactive are those of the source. Rule as the data show it: active = GI50 up to about 1.1 µM and inactive = higher.

Among the test systems are Hs-578T; DLD-1; DMS-114; LXFL 529; RXF 631; XF498; BT-549; SNB-78; 786-0.
Common to all, as to assay: NCI tumour cell line growth inhibition, 48 h

For `COc1ccc(N2C(=O)C3c4[nH]c5c(C)cccc5c4C4CCC(C(C)(C)C)CC4C3C2=O)cc1` (configuration not stated), in the test with Hs-578T, the GI50 is 8.17 µM (inactive).

Turning to `O=[N+]([O-])c1ccccc1S(=O)(=O)c1ccccc1`, the GI50 is > 100 µM (inactive) in the test on DLD-1; 64 µM (inactive) in the test with DMS-114; > 100 µM (inactive) with LXFL 529; 18.5 µM (inactive) in the test on RXF 631; 0.321 µM (active) in the test on XF498.

Consider `COc1ccccc1-c1cc(O)c2ccc(C)nc2n1`, for which the GI50 in the test on BT-549 and with Hs-578T was > 100 µM (inactive) in each case.

On to `Cc1ccc(NC(=O)CC2Sc3ccccc3NC2=O)cc1C` (configuration not stated), for which the GI50 with DLD-1 is > 100 µM (inactive); in the test on DMS-114, 41.9 µM (inactive); with LXFL 529 it was 49 µM (inactive); in the test on SNB-78, > 100 µM (inactive); with XF498, > 100 µM (inactive).

Take `Cc1ccc(S(=O)(=O)NCCCSCCO)cc1`: in the test with Hs-578T, the GI50 was 30.5 µM (inactive).

For `CN(C(=O)C1=CCC2(CC1)OCCO2)c1ccccc1I`, in the test with 786-0, the GI50 is > 100 µM (inactive).

In the case of `C/C=C/CC(C)[C@@H](O)[C@H](NC)C(=O)O` (some centres not stated), the GI50 in the test on 786-0, with DLD-1, with DMS-114 and with LXFL 529 was > 100 µM (inactive) in each case.

With `COC(=O)CCC(=O)Nc1ccc(Cl)cc1C`, the GI50 in the test on 786-0 was > 50.8 µM (inactive); with DLD-1 it was > 100 µM (inactive); with DMS-114, 0.859 µM (active); with LXFL 529 it was 32.1 µM (inactive); in the test on RXF 631, > 29.9 µM (inactive); with SNB-78 it was 98.4 µM (inactive). Moreover, the GI50 with XF498 was 13.5 µM (inactive).

Consider `O=C(/C=C\c1ccc(/C=C/C(=O)Nc2cccc(C3=NCCCN3)c2)cc1)Nc1cccc(C2=NCCCN2)c1`, for which the values for the GI50 in the test on DLD-1, in the test on SNB-78 and in the test with XF498 were > 100 µM (inactive), > 100 µM (inactive) and < 0.01 µM (active), respectively.

For `CC(=O)Nc1ccc2c3c(cc(O)c2c1)N(C(=O)CCCCCC(=O)Nc1ccc2c4c(cc(O)c2c1)N(C(=O)OC(C)(C)C)CC4CCl)CC3CCl` (configuration not stated), the GI50 with 786-0 was 2.04 µM (inactive); with BT-549, 1.87 µM (inactive); in the test with Hs-578T, 3.94 µM (inactive).

As for `CC1CC/C(=C\c2ccc(F)cc2)C(=O)/C1=C/c1ccc(F)cc1` (configuration not stated), the GI50 in the test on 786-0 was 2.9 µM (inactive); in the test on BT-549, 3.58 µM (inactive); in the test on Hs-578T it was 6.58 µM (inactive).

For the molecule `CCN(CC)CCC(=O)c1ccccc1`, the GI50 in the test on DMS-114 was 20.3 µM (inactive); in the test with LXFL 529, 17.8 µM (inactive).

The values above are taken from ChEMBL document CHEMBL1201862, “PubChem BioAssay data set” (2004).
